{"source": "paper PMC11421834", "about": "(European journal of medicinal chemistry, 2024)"}
{"test_system": "over 400 kinases", "test": "KinomeSCAN kinome profiling at 1 μM", "type": "binding", "settings": "KinomeSCAN at 1 μM across over 400 kinases"}
{"compound": "COc1ccc2c(c1)/C(=C/c1cnc[nH]1)C(=O)N2", "note": "[Compound 1, (3Z)-3-[(1H-imidazole-5-yl)methylidene]-5-methoxy-2,3-dihydro-1H-indol-2-one]", ">90: Number of kinases inhibited above 90%": 15}
{"compound": "CC(=O)c1ccc2c(c1)/C(=C/c1ccc[nH]1)C(=O)N2", "note": "[Compound 27, (3Z)-5-acetyl-3-(1H-pyrrol-2-ylmethylidene)-2,3-dihydro-1H-indol-2-one]", ">90: Number of kinases inhibited above 90%": 62}
{"compound": "O=C1Nc2ccc(C(=O)c3ccccc3)cc2/C1=C/c1cnc[nH]1", "note": "[Compound 44, (3Z)-5-benzoyl-3-(1H-imidazole-5-ylmethylidene)-2,3-dihydro-1H-indol-2-one]", ">90: Number of kinases inhibited above 90%": 15}
{"compound": "O=C1Nc2ccc(NC(=O)c3ccccc3)cc2/C1=C/c1ccc[nH]1", "note": "[Compound 72, N-[(3Z)-2-oxo-3-(1H-pyrrol-2-ylmethylidene)-2,3-dihydro-1H-indol-5-yl]benzamide]", ">90: Number of kinases inhibited above 90%": 10}
{"compound": "O=C1Nc2ccc(NC(=O)c3ccccc3)cc2/C1=C/c1cnc[nH]1", "note": "[Compound 73, N-[(3Z)-3-(1H-imidazole-5-ylmethylidene)-2-oxo-2,3-dihydro-1H-indol-5-yl]benzamide]", ">90: Number of kinases inhibited above 90%": 9}
{"compound": "O=C1Nc2ccc(NC(=O)c3ccccc3)cc2/C1=C/c1ncc[nH]1", "note": "[Compound 74, N-[(3Z)-3-(1H-imidazole-2-ylmethylidene)-2-oxo-2,3-dihydro-1H-indol-5-yl]benzamide]", ">90: Number of kinases inhibited above 90%": 11}
{"compound": "COc1ccccc1C(=O)Nc1ccc2c(c1)/C(=C/c1ncc[nH]1)C(=O)N2", "note": "[Compound 97, N-[(3Z)-3-(1H-imidazole-2-ylmethylidene)-2-oxo-2,3-dihydro-1H-indol-5-yl]-2-methoxybenzamide]", ">90: Number of kinases inhibited above 90%": 7}
{"compound": "O=C1Cc2cc(NC(=O)c3cc4sccc4s3)ccc2N1", "note": "[Compound 111]", ">90: Number of kinases inhibited above 90%": 15}
{"compound": "Cc1nc[nH]c1/C=C1\\C(=O)Nc2ccc(NC(=O)c3ccccc3)cc21", "note": "[Compound 128, N-[(3Z)-3-[(4-methyl-1H-imidazole-5-yl)methylidene]-2-oxo-2,3-dihydro-1H-indol-5-yl]benzamide]", ">90: Number of kinases inhibited above 90%": 11}
{"test_system": "over 400 kinases", "test": "KinomeSCAN kinome profiling at 1 μM", "type": "binding", "settings": "KinomeSCAN at 1 μM, selectivity score"}
{"compound": "CC(=O)c1ccc2c(c1)/C(=C/c1ccc[nH]1)C(=O)N2", "note": "[Compound 27, (3Z)-5-acetyl-3-(1H-pyrrol-2-ylmethylidene)-2,3-dihydro-1H-indol-2-one]", "S(10)": 0.154}
{"target": "T1, FLT3 (Homo sapiens, UniProt P36888)", "T1 sequence (P36888 27-993)": "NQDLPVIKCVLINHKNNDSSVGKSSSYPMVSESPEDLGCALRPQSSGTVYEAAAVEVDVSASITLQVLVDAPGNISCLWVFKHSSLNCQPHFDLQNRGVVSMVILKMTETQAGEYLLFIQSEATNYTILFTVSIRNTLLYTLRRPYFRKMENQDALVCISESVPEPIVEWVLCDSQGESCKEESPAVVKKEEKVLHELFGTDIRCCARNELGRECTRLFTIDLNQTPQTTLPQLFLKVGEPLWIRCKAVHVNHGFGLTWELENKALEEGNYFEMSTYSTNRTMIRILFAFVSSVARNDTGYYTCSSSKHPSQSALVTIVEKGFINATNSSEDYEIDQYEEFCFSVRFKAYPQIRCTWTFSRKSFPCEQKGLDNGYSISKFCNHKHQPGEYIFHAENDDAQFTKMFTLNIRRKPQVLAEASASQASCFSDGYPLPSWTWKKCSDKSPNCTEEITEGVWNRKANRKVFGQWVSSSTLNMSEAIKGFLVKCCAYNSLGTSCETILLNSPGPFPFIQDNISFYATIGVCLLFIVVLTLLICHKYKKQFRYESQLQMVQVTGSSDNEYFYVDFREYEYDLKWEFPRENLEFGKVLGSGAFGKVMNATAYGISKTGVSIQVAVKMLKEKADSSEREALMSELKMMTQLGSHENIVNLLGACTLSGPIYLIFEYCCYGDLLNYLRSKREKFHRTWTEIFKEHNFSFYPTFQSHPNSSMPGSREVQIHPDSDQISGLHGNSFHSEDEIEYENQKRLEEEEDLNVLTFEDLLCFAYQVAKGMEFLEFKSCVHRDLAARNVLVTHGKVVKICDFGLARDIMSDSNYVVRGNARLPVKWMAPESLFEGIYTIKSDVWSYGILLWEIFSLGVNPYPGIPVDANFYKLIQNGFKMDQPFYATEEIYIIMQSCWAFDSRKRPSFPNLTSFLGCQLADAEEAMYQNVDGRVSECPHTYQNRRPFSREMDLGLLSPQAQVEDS", "test": "FLT3 enzyme assay, single concentration", "settings": "read-out: FLT3 (% Inh.)", "units": {"inhibition at 0.5 µM": "%"}}
{"compound": "COc1ccsc1C(=O)Nc1ccc2c(c1)/C(=C/c1cnc[nH]1)C(=O)N2", "note": "[Compound 119, (Z)-N-(3-((1H-imidazole-5-yl)methylene)-2-oxoindolin-5-yl)-3-methoxythiophene-2-carboxamide]", "inhibition at 0.5 µM": 80}
{"target": "TRKC (Homo sapiens, UniProt Q16288)", "sequence (Q16288 32-839)": "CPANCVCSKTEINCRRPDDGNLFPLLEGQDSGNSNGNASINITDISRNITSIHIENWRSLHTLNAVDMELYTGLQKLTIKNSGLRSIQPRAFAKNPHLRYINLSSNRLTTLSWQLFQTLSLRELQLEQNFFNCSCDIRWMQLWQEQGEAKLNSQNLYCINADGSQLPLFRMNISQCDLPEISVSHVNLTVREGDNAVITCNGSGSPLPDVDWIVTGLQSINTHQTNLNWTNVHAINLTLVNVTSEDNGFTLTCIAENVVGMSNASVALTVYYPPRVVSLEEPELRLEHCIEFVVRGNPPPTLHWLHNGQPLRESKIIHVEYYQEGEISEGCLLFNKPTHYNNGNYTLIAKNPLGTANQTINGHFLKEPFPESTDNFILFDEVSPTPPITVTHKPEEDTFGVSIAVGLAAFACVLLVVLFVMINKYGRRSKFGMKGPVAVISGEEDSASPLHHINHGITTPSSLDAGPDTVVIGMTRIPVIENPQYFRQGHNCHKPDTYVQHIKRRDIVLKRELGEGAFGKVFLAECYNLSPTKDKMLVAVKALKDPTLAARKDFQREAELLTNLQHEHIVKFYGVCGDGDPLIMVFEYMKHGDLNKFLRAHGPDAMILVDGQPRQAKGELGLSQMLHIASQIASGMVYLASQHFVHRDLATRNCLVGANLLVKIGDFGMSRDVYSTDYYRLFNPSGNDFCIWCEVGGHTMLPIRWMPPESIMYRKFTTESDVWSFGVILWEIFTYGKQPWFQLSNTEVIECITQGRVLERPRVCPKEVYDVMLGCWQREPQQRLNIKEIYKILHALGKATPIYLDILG", "test": "TRKC enzyme assay, single concentration", "settings": "Percentage inhibition at 0.5 μM (n = 2); ATP 10 μM", "units": {"TRKC (% Inh.)": "%"}}
{"compound": "3-ethoxy-N-[(3Z)-3-[(1H-imidazole-5-yl)methylidene]-2-oxo-2,3-dihydro-1H-indol-5-yl]thiophene-2-carboxamide [Compound 120]", "TRKC (% Inh.)": 92}
{"compound": "(3Z)-3-(1H-pyrazol-5-ylmethylidene)-2,3-dihydro-1H-indol-2-one [Compound 8]", "TRKC (% Inh.)": 92}
